Assay results reported in the supplement of paper PMC10307832.

Key:
Test in all cases: relative viability (nuclei count vs DMSO), 5 days (fraction); higher = more cells survive
201T = test system: 201T
In short: (§1)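 One day after seeding in 1536-well plates, lung cancer cell lines were dosed by pin tool. Dosing was either single-drug or a fixed anchor-drug dose plus five library-drug doses (not always all listed) in √10 steps. After 5 days, nuclei were stained in one fix-and-stain step and counted on 4× images, and relative viability is the nuclei count of treated wells over that of vehicle wells, given as the median of duplicate plates.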

A-427 = test system: A-427
In short: as §1

ABC-1 = test system: ABC-1
In short: as §1

BEN = test system: BEN
In short: as §1

CAL-12T = test system: CAL-12T
In short: as §1

H3255 = test system: H3255
In short: as §1

HCC-15 = test system: HCC-15
In short: as §1

LC-2-ad = test system: LC-2-ad
In short: as §1

LCLC-97TM1 = test system: LCLC-97TM1
In short: as §1

NCI-H1650 = test system: NCI-H1650
In short: as §1

NCI-H1651 = test system: NCI-H1651
In short: as §1

NCI-H1792 = test system: NCI-H1792
In short: as §1

NCI-H1915 = test system: NCI-H1915
In short: as §1

NCI-H1944 = test system: NCI-H1944
In short: as §1

NCI-H2023 = test system: NCI-H2023
In short: as §1

NCI-H2087 = test system: NCI-H2087
In short: as §1

NCI-H441 = test system: NCI-H441
In short: as §1

NCI-H460 = test system: NCI-H460
In short: as §1

NCI-H520 = test system: NCI-H520
In short: as §1

NCI-H650 = test system: NCI-H650
In short: as §1

NCI-H661 = test system: NCI-H661
In short: as §1

NCI-H727 = test system: NCI-H727
In short: as §1

PC-3 [JPC-3] = test system: PC-3 [JPC-3]
In short: as §1

SMILES: CC(C)Oc1cc(Nc2nc(N[C@@H](C)c3ccc(F)cn3)ncc2Cl)n[nH]1 [AZ23] + CC(=O)c1c(C)c2cnc(Nc3ccc(N4CCNCC4)cn3)nc2n(C2CCCC2)c1=O [Palbociclib] (partner 0.5 µM)
- relative viability (201T; first compound 0.01 µM): 0.359
- relative viability (201T; first compound 0.03162 µM): 0.38
- relative viability (201T; first compound 0.3162 µM): 0.372
- relative viability (A-427; first compound 0.01 µM): 0.459
- relative viability (A-427; first compound 0.03162 µM): 0.524
- relative viability (A-427; first compound 0.3162 µM): 0.586
- relative viability (ABC-1; first compound 0.01 µM): 0.765
- relative viability (ABC-1; first compound 0.03162 µM): 0.82
- relative viability (ABC-1; first compound 0.3162 µM): 0.694
- relative viability (BEN; first compound 0.01 µM): 0.475
- relative viability (BEN; first compound 0.03162 µM): 0.458
- relative viability (BEN; first compound 0.3162 µM): 0.455
- relative viability (CAL-12T; first compound 0.03162 µM): 0.285
- relative viability (CAL-12T; first compound 0.3162 µM): 0.414
- relative viability (H3255; first compound 0.01 µM): 0.31
- relative viability (H3255; first compound 0.03162 µM): 0.318
- relative viability (H3255; first compound 0.3162 µM): 0.295
- relative viability (HCC-15; first compound 0.01 µM): 0.881
- relative viability (HCC-15; first compound 0.03162 µM): 0.757
- relative viability (HCC-15; first compound 0.3162 µM): 0.799
- relative viability (LC-2-ad; first compound 0.01 µM): 0.593
- relative viability (LC-2-ad; first compound 0.03162 µM): 0.529
- relative viability (LC-2-ad; first compound 0.3162 µM): 0.501
- relative viability (LCLC-97TM1; first compound 0.01 µM): 0.261
- relative viability (LCLC-97TM1; first compound 0.03162 µM): 0.248
- relative viability (LCLC-97TM1; first compound 0.3162 µM): 0.203
- relative viability (NCI-H1650; first compound 0.01 µM): 0.303
- relative viability (NCI-H1650; first compound 0.03162 µM): 0.439
- relative viability (NCI-H1650; first compound 0.3162 µM): 0.378
- relative viability (NCI-H1651; first compound 0.01 µM): 0.523
- relative viability (NCI-H1651; first compound 0.03162 µM): 0.526
- relative viability (NCI-H1651; first compound 0.3162 µM): 0.505
- relative viability (NCI-H1792; first compound 0.01 µM): 0.737
- relative viability (NCI-H1792; first compound 0.03162 µM): 0.617
- relative viability (NCI-H1792; first compound 0.3162 µM): 0.645
- relative viability (NCI-H1915; first compound 0.01 µM): 0.571
- relative viability (NCI-H1915; first compound 0.03162 µM): 0.492
- relative viability (NCI-H1915; first compound 0.3162 µM): 0.5
- relative viability (NCI-H1944; first compound 0.01 µM): 0.304
- relative viability (NCI-H1944; first compound 0.03162 µM): 0.342
- relative viability (NCI-H1944; first compound 0.3162 µM): 0.278
- relative viability (NCI-H2023; first compound 0.03162 µM): 0.369
- relative viability (NCI-H2023; first compound 0.3162 µM): 0.264
- relative viability (NCI-H2087; first compound 0.01 µM): 0.255
- relative viability (NCI-H2087; first compound 0.03162 µM): 0.21
- relative viability (NCI-H2087; first compound 0.3162 µM): 0.22
- relative viability (NCI-H441; first compound 0.01 µM): 0.199
- relative viability (NCI-H441; first compound 0.03162 µM): 0.198
- relative viability (NCI-H441; first compound 0.3162 µM): 0.202
- relative viability (NCI-H460; first compound 0.01 µM): 0.0638
- relative viability (NCI-H460; first compound 0.03162 µM): 0.146
- relative viability (NCI-H460; first compound 0.3162 µM): 0.127
- relative viability (NCI-H520; first compound 0.01 µM): 0.236
- relative viability (NCI-H520; first compound 0.03162 µM): 0.193
- relative viability (NCI-H520; first compound 0.3162 µM): 0.177
- relative viability (NCI-H650; first compound 0.01 µM): 0.352
- relative viability (NCI-H650; first compound 0.03162 µM): 0.309
- relative viability (NCI-H650; first compound 0.3162 µM): 0.301
- relative viability (NCI-H661; first compound 0.01 µM): 0.367
- relative viability (NCI-H661; first compound 0.03162 µM): 0.391
- relative viability (NCI-H661; first compound 0.3162 µM): 0.349
- relative viability (NCI-H727; first compound 0.01 µM): 0.59
- relative viability (NCI-H727; first compound 0.03162 µM): 0.66
- relative viability (NCI-H727; first compound 0.3162 µM): 0.619
- relative viability (PC-3 [JPC-3]; first compound 0.01 µM): 0.552
- relative viability (PC-3 [JPC-3]; first compound 0.03162 µM): 0.611
- relative viability (PC-3 [JPC-3]; first compound 0.3162 µM): 0.536
